From publication PMC3409115, “Diverse Inhibitor Chemotypes Targeting Trypanosoma cruzi CYP51” (PLoS Neglected Tropical Diseases, 2012)
“Also recorded” adds a separate entry of the source. Where two headings read alike, the source gives them in different places.

Key:
[1] = target: T1, T. cruzi CYP51 (Trypanosoma cruzi, UniProt Q7Z1V1); assay: Primary HTS in two-wavelength mode; format: binding; conditions: 2 µM CYP51, 528 measurements
T1 construct: had the first 21 residues upstream of K22 replaced with the fragment MAKKKKK; His6 (C); made in house
T1 sequence (Q7Z1V1 15-481, looked up, natural form): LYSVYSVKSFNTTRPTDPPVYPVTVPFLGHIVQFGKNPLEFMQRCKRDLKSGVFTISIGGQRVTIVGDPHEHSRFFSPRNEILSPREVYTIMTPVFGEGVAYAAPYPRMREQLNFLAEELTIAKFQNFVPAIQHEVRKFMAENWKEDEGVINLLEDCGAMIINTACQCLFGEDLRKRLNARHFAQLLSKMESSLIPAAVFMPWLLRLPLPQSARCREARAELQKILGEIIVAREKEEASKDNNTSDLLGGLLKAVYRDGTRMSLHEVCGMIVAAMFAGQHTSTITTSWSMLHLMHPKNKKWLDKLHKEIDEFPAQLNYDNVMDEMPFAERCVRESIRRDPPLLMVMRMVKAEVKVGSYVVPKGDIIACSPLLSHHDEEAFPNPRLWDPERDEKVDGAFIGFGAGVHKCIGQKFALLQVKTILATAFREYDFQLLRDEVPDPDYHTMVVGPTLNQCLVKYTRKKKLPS

[2] = target: T1, T. cruzi CYP51; assay: Low throughput UV-vis binding assay; conditions: read-out: KD
Experimental: Hit validation in the low throughput UV-vis binding assay was performed according to a previously published but somewhat modified protocol. UV-vis absorption spectra were recorded on a Cary scanning spectrophotometer (Varian) in the 1-cm path length quartz cuvette at 23°C in 100 mM potassium phosphate buffer, pH 7.5, containing 10% glycerol, with CYP51 concentration of 0.5 µM. Compound solutions used for titration were prepared in DMSO at 100 µM and added in 2-µl aliquots to each 3 ml sample using a P2 pipetman (Gilson). Binding affinity of hits was estimated using the quadratic tight-binding equation [27]: […]
where Aobs is the absorption shift determined at any ligand concentration; Amax is the maximal absorption shift obtained at saturation; KD is dissociation constant for the inhibitor-enzyme complex; S is the ligand concentration; Et is the total enzyme concentration.

[3] = system: T. cruzi-infected skeletal myoblasts (intracellular amastigotes); assay: Hit cross-validation in T. cruzi-infected mammalian cells (image-based assay); format: cell-based, Trypanosoma cruzi
Experimental: Bovine embryo skeletal muscle cells or mouse C2C12 myoblasts (ATCC#CRL-1772) used in the cross-validation assay, were cultivated respectively in RPMI 1640 medium supplemented with 5% horse serum and Dulbecco's Modified Eagle's Medium H-21 containing 4.5 g/l glucose (DMEM H-21) (Cell Culture Facility, UCSF), supplemented with 5% fetal bovine serum (FBS) (Sigma Chemical Co., St. Louis, MO, USA), 25 mM HEPES, 2 mM L-glutamine, 100 U/ml penicillin, 100 µg/ml streptomycin. T. cruzi CAI-72 trypomastigotes were obtained from supernatant of infected cultures 4 to 7 days post-infection. Cultures were maintained at 37°C in an atmosphere of 5% CO2. To harvest parasites, the supernatant of infected cultures containing released trypomastigotes was collected and centrifuged at 600 rpm for 5 min to remove cell debris; the pellet was then discarded and the trypomastigotes remaining in the media were concentrated by spinning the culture tubes at 3300 rpm for 15 minutes. The parasite pellet was re-suspended in 2–5 ml of fresh media. Trypomastigote concentration was determined using a Neubauer hemocytometer.
(§1) Compound cross-validation in T. cruzi infected skeletal myoblasts (bovine embryo skeletal muscle or C2C12 lineage) was performed according to the protocol adapted from Engel and co-authors. Compounds stored as 10 mM stocks in DMSO were freshly diluted immediately prior to use. […] To prepare plates for the assay, skeletal myoblasts cultured in […] flasks were washed once with phosphate buffered saline (PBS) and then incubated with 0.25% trypsin in PBS for 1–3 minutes for detachment. The trypsin solution was removed and myoblasts were released from the flask bottom. Fresh medium was added and cell concentration was determined using a Neubauer hemocytometer. Myoblasts in 50 µl of culture medium were transferred to the clear-bottom wells of black 96-well plates (Greiner Bio-One, #655090) at a density of 1500 cells/well and infected with 50 µl trypomastigote culture at 7500 parasites/well (1∶5 ratio). The cells were allowed to adhere and spread for 24 h in the incubator before the media was removed and 100 µl of fresh medium containing 0, 0.04, 0.12, 0.37, 1.10, 3.30 or 10 µM of test compound was added to each well, followed by 72 h incubation at 37°C in an atmosphere of 5% CO2. Posaconazole was used as a positive control at the same concentrations as the test compounds. The cells were then fixed by adding 100 µl/well of 8% formaldehyde in PBS, resulting in a 4% working concentration of formaldehyde. To stain the nucleus of the host cell and the nucleus and kinetoplast of parasites, cell membranes were first permeabilized by washing once with 100 µl of 0.1% Triton X-100 in PBS, then treated for 1 h with 0.2 µg/ml of the fluorescent DNA dye, 4,6-diamidino-2-phenylindole (DAPI), followed by one wash with PBS. The fixed plates were kept at 4°C and protected from light until images were acquired.
(§2) Plates were allowed to equilibrate to room temperature and images were acquired by the IN Cell Analyzer 2000 (GE Healthcare) with a 20× objective, 5 fields per well, with 350/50 nm and 460/40 nm fluorescent excitation and emission filters. In the absence of drug cytotoxicity, at least 800 cells were imaged and counted per well. The images were processed and analyzed by IN Cell Analyzer Developer 1.6 software. The size parameters used to segment host and parasite organelles were 125 µm^2 for host nucleus, and 1–2 µm^2 for parasite nucleus/kinetoplast. Since DAPI also strongly stains host heterochromatin regions that display as shapes resembling parasites ( Figure 3 ), particles co-localized to host nuclei were excluded from quantification, while parasite aggregates near the host nucleus were counted as infected cells.

[4] = system: host cell (skeletal myoblasts, bovine embryo skeletal muscle or C2C12); assay: Host cell toxicity in the cross-validation assay; format: cell-based; conditions: host cells in cross-validation assay, up to 10 µM
Experimental: as §1
as §2, with “cells. Numbers of host cells and intracellular amastigotes were determined based on host cell and parasite nucleus and parasite kinetoplast quantification, providing a measure of growth inhibition during the first 72 h of post-infection treatment compared to untreated controls.” for “cells.”
^aToxicity was assessed as the highest percentage of host cell growth inhibition caused by compound treatment. Scores are assigned as 1-<20%; 2-21-30%; 3- 31-40%; 4-41-50% and 5->50% growth inhibition.

[5] = target: T1, T. cruzi CYP51; assay: HTS spectral-mode binding screen, type II difference spectra scored 0-5
[6] = system: T. cruzi trypomastigote strain CAI/72 in C2C12 myoblasts; assay: Trypanocidal assay; format: cell-based, Trypanosoma cruzi; conditions: 14 days treatment, then one week compound-free
Experimental: Compounds cross-validated with low EC50 against T. cruzi infected cells were further evaluated to determine the “cidal” concentration at which host cells are effectively cured, using the protocol adapted from Engel et al 1998 [30]. To allow long term treatment and avoid culture overgrowth, C2C12 myoblasts were seeded at low density in 96 well plates (10^3 cells/well) and cultured with DMEM H-21 medium supplemented with low FBS concentration (1%), 25 mM HEPES, 2 mM L-glutamine, 100 U/ml penicillin and 100 µg/ml streptomycin. The cells were infected with T. cruzi trypomastigote strain CAI/72 (5 parasites/cell) for 24 h and treated with 0, 0.04, 0.12, 0.37, 1.10, 3.30 or 10 µM test compounds in 100 µl of medium for 14 days. During the course of treatment, medium supplemented with test compounds was replaced every 72 h. After 14 days, drug pressure was withdrawn and incubation continued in the compound-free medium for another week, during which cultures were monitored for reappearance of T. cruzi trypomastigotes in the supernatant.

[7] = system: sterol biosynthesis in T. cruzi amastigotes; assay: Lipid analysis of T. cruzi amastigotes (GC-MS of membrane sterols); format: cell-based, Trypanosoma cruzi; conditions: amastigotes in C2C12 myoblasts, 24 h drug treatment, concentrations 5x below cidal; posaconazole 100 nM
Experimental: To grow intracellular amastigotes for lipid analysis, C2C12 mouse skeletal myoblasts (4×10^6 cells) cultured in 150 cm^2 flasks as described above were infected with 80×10^6 trypomastigotes for 24 h. The cultures were treated with test compounds 72 h post-infection at concentrations 5× below cidal to avoid completely killing the parasites. Posaconazole at 100 nM was used as a positive control. […] Cells were harvested 96 h post-infection and after 24 h of drug treatment. Cell detachment was initiated by brief treatment with 10 ml of 0.25% trypsin in PBS, followed promptly by replacement with 10 ml of fresh media containing FBS. Harvested cells were washed 3× with 25 ml of PBS to remove FBS and released trypomastigotes. The suspension of infected cells was then transferred to a glass tube and centrifuged at 2000 rpm for 5 min. After washing with PBS, 2 ml of chloroform-methanol solution (2∶1 ratio) was added to re-suspend the cell pellet. Organic solvents were then evaporated under N2 flow, allowing the pellet to dry.
For total lipid extraction, the dry cell pellet was treated with 2 ml chloroform for 24 h. Polar molecules were removed by washing the organic phase 3× with 3 ml water. The organic phase containing the sterols was subsequently dried on an evaporator under N2 flow. The lipids were re-suspended in 2 ml of chloroform-methanol (9∶1 ratio), washed again 3× with 3 ml water, dried under N2 flow and re-suspended in acetonitrile. After an additional wash 3× with 3 ml water, the acetonitrile was dried under an N2 stream. Extracted dry sterols were re-dissolved in hexane and derivatized with N,N-bis(trimethylsilyl)-2,2,2-trifluoroacetamide (BSTFA) (Pierce) by incubating at 37°C for at least 2 hours. Sterols as their trimethylsilyl (TMS) derivatives were analyzed by gas chromatography and mass spectrometry (GC-MS). GC-MS analysis and lipid identification were performed as described previously.

[8] = UV-vis titration, 0.5 µM CYP51, quadratic tight-binding equation, lower limit of method ~5 nM
[9] = T. cruzi-infected myoblasts, 72 h treatment, read-out: EC50 against T. cruzi parasites in HTS assay used to rank order the hits
[10] = Trypanosoma cruzi, Myoblast, 72 h, T. cruzi-infected myoblasts, 72 h treatment, repurchased compound, read-out: EC50 averaged from two independent cross-validation assays for individually repurchased hits
[11] = Trypanosoma cruzi, Myoblast, 72 h, T. cruzi-infected myoblasts, 72 h treatment, read-out: EC50 against T. cruzi parasites in HTS assay used to rank order the hits
[12] = spectral mode, four serial dilutions 2 µM to 12.5 µM, 2 µM CYP51
[13] = Trypanosoma cruzi, Myoblast, 72 h, read-out: EC50 against T. cruzi parasites in HTS assay used to rank order the hits
[14] = type II difference spectra scored 0-5, second highest rated hit compound cluster

Compound: CC1CCC(C(=O)NC(Cc2c[nH]c3ccccc23)C(=O)Nc2ccncc2)CC1 (stereo not drawn) [reference, α-[(4-methylcyclohexyl)carbonylamino]-N-4-pyridinyl-1H-indole-3-propanamide]
- ΔA = A425−A390 [1]: 0.043±0.004

Compound: COc1ccc(S(=O)(=O)NC(C)c2ccc(-n3ccnc3)cc2)c2ccccc12 (centres unmarked) [Compound 3]
- Kd [2, 8]: ≤ 5 nM
- EC50 [3, 9]: 484 nM
- EC50 [3, 10]: 200 nM
- EC50 [3, 11]: 480 nM
- Toxicity score (highest percentage of host cell growth inhibition) [4]: 2 (2-21-30%)

Compound: Brc1ccccc1OCCCCn1ccnc1 [Compound 1b]
- Kd [2, 8]: 66 ± 29 nM
- EC50 [3, 10]: 4580 ± 2000 nM

Compound: Cc1cccc(Nc2nc(-c3ccncc3)cs2)n1 [Compound 9]
- HTS binding score [5, 12]: 4
- Kd [2, 8]: ≤ 5 nM
- EC50 [3, 9]: 914 nM
- EC50 [3, 10]: 580 nM
- EC50 [3, 11]: 910 nM
- Toxicity score (highest percentage of host cell growth inhibition) [4]: 1 (1-<20%)

Compound: Brc1ccc(OCCCCCCn2ccnc2)cc1 [Compound 1a]
- Kd [2, 8]: ≤ 5 nM
- EC50 [3, 10]: 930 ± 100 nM

Compound: Clc1ccc(OCCCCCCn2ccnc2)cc1 [Compound 11]
- Kd [2, 8]: 65 ± 15 nM
- EC50 [3, 9]: 948 nM
- EC50 [3, 10]: 760 nM
- EC50 [3, 11]: 950 nM
- Toxicity score (highest percentage of host cell growth inhibition) [4]: 2 (2-21-30%)

Compound: c1ccc2c(c1)-c1ccccc1C2n1ccnc1 [Compound 36]
- HTS binding score [5, 12]: 1
- EC50 [3, 13]: 7240 nM
- Toxicity score (highest percentage of host cell growth inhibition) [4]: 3 (3- 31-40%)

Compound: COC(=O)C1=C(N)Oc2cc(C)n(CCc3ccc(OC)c(OC)c3)c(=O)c2C1c1cccnc1 (centres unmarked) [Compound 6, methyl 2-amino-6-[2-(3,4-dimethoxyphenyl)ethyl]-7-methyl-5-oxo-4-pyridin-3-yl-5,6-dihydro-4H-pyrano[3,2-c]pyridine-3-carboxylate]
- HTS binding score [5, 12]: 3
- HTS binding score [5, 14]: 3
- Kd [2, 8]: 76 nM
- EC50 [3, 9]: 614 nM
- EC50 [3, 11]: 610 nM
- EC50 ([3]; Trypanosoma cruzi, Myoblast, in Mus musculus, T. cruzi amastigotes cultured in mouse myoblasts, averaged from two independent assays, read-out: EC50 in low throughput validation (repurchased hit)): 80 nM
- Toxicity score (highest percentage of host cell growth inhibition) [4]: 1 (1-<20%)

Compound: N#CC1=C(N)OC2=C(C(=O)CC(c3ccccc3)C2)C1c1cccnc1 (centres unmarked) [Compound 7]
- HTS binding score [5, 12]: 3
- HTS binding score [5, 14]: 3
- EC50 [3, 9]: 667 nM
- EC50 [3, 11]: 670 nM
- Toxicity score (highest percentage of host cell growth inhibition) [4]: 4 (4-41-50%)

Compound: CC[C@@H]([C@H](C)O)n1ncn(-c2ccc(N3CCN(c4ccc(OC[C@@H]5CO[C@@](Cn6cncn6)(c6ccc(F)cc6F)C5)cc4)CC3)cc2)c1=O [posaconazole, reference compound]
- EC50 ([3]; Trypanosoma cruzi, Myoblast, 72 h, T. cruzi-infected myoblasts, 72 h treatment, read-out: EC50 in image-based HTS cross-validation assay): 1 nM
- Trypanocidal concentration [6]: 0.6 nM
- Effect on membrane sterol composition by GC-MS [7]: lanosterol (f) and eburicol (h) dominated the GC-MS traces; also recorded: fecosterol (e) was completely inhibited

Compound: Cc1ccc(CNC(=O)C(=O)NCC(c2cccnc2)N2CCN(Cc3ccccc3)CC2)cc1 (centres unmarked) [Compound 14]
- HTS binding score [5, 12]: 2
- EC50 [3, 13]: 1670 nM
- Toxicity score (highest percentage of host cell growth inhibition) [4]: 4 (4-41-50%)

Compound: CC1(C)CC(=O)C2=C(C1)c1c(ccc3ccccc13)NC2c1cccnc1 (centres unmarked) [Compound 19]
- HTS binding score [5, 12]: 5
- HTS binding score [5, 14]: 5
- Kd ([2]; T. cruzi CYP51): ≤ 5 nM
- EC50 [3, 11]: 2500 nM
- Toxicity score (highest percentage of host cell growth inhibition) [4]: 3 (3- 31-40%)
